We go through 14 molecules from US7829585B2, “Antifungal agent containing pyridine derivative” (Eisai R&D Management Co., Ltd., priority 2005, dated 2010).

Converted amounts (≈) assume the structure as drawn.

In test [1] the test system is A. fumigatus Tsukuba strain. The test is described as follows: Anti-Aspergillus activity, MIC measurement (broth dilution, visual inspection). The format is cell-based. The settings on record: RPMI1640, 48 hours at 35° C., read-out: Anti-Aspergillus activity (minimum growth inhibitory concentration, MIC). Here is the method:
(§1) For the C. albicans E81022 strain, a fungal suspension from a standing culture 48 hours at 30° C. in a Sabouraud dextrose liquid culture medium (SDB) was diluted 10000-fold with 1.3-times concentrated RPMI1640 medium to prepare a fungal suspension containing 1 to 2×10^4 cells/ml. For the A. fumigatus Tsukuba strain, −80° C. stored strain was diluted 1000-fold with 1.3-times concentrated RPMI1640 medium to prepare a fungal suspension containing 2 to 3×10^3 cells/ml.
(§2) Using a U-shaped bottomed 96-well plates, 8 samples/plate (A to H) of sample dilution solutions were prepared. On the first row was dispensed 240 μl of sterile distilled water, and on the 2nd to 12th row were dispersed 125 μL of 4% dimethylsulfoxide solution. Weighed sample was dissolved in dimethylsulfoxide to prepare a 5 mg/ml solution followed by adding 10 μL of the solutions to the first row of the prepared plates and preparing 12-step serial 2-fold dilutions (125 μL of solution+125 μL of 4% dimethylsulfoxide solution) on the plates.
(§3) The fungal suspension prepared in (1) was used in the amount of 75 μL/well to inoculate the flat-bottomed 96-well plates containing 25 μL/well of the test compound prepared in (2), and a standing culture was carried out aerobically for 48 hours at 35° C.
On the technique in general: Dilution methods test growth across graded concentrations, often in twofold steps.

For test [2], the system named is C. albicans E81022 strain. The test is described as follows: Anti-Candida activity, MIC measurement (broth dilution, visual inspection). The format is cell-based. The following applies: Candida albicans, E81022STRAIN, C. albicans E81022, RPMI1640, 48 hours at 35° C., read-out: Anti-Candida activity (minimum growth inhibitory concentration, MIC). Here is the method: as §1, §2, §3

Test [3] relates to C. albicans E81022 strain. The test is described as follows: Experimental systemic Candida infection model in mice. The format is in vivo. The settings on record: female ICR mice, C. albicans E81022 i.v. 4×10^6 cells/mouse; 10 mg/kg peroral, three times every 4 hours; observed until 14 days after infection. Here is the method: A standing culture of C. albicans E81022 strain was static cultured for 48 hours at 30° C. in Sabouraud's dextrose agar (SDA), and the recovered fungal cells were suspended in sterilized physiological saline. By counting the fungal number on cytometry plate, the suspension was diluted to 2×10^7 cells/mL with sterilized saline to serve fungal inoculant.
The fungal inoculum was used in the amounts of 0.2 mL to inoculate 4.5 to 5.5 week-old femal ICR mice in the tail vein (4×10^6 cells/mouse).
From 0.5 to 1 hour after fungal inoculation, 0.2 mL of agent solution (dissolved or suspended in sterilized saline containing 6.5% dimethylsulfoxide and 3.5% Tween 80) was administered into the stomach using a peroral probe, three times every 4 hours. The agent concentration was set at 10 mg/kg and the number of animals in one group was 5 animals.
The protective effect was determined by observing life/death until 14 days after infection and calculating the mean survival days.

As for `CCOc1ccc2cc(CNC(=O)c3ccc(N)nc3N)oc2c1` [Example 2, 2,6-Diamino-N-(6-ethoxy-benzofuran-2-ylmethyl)-nicotinamide], the MIC in test [1] came to 3.13 µg/mL (≈ 9.59 µM); in test [2] it was 1.56 µg/mL (≈ 4.78 µM). Besides, the “Mean Survival Days” value in test [3] is 8.6 days.
Regarding `COCc1ccc(C(=O)NCc2cc3ccc(OCC4CC4)cc3o2)c(N)n1` [Example 6, 2-Amino-N-(6-cyclopropylmethoxy-benzofuran-2-ylmethyl)-6-methoxymethyl-nicotinamide], the MIC in test [1] amounted to 1.56 µg/mL (≈ 4.09 µM); in test [2], 0.78 µg/mL (≈ 2.04 µM). Also, the “Mean Survival Days” value in test [3] was found to be 11.4 days.
Consider `C=CCOc1ccc2cc(CNC(=O)c3ccc(N)nc3N)oc2c1` [Example 9, N-(6-Allyloxy-benzofuran-2-ylmethyl)-2,6-diamino-nicotinamide], for which the “Mean Survival Days” value in test [3] is 9.6 days.
In the case of `C=CCOc1ccc2cc(CNC(=O)c3ccc(COC)nc3N)oc2c1` [Example 5, N-(6-Allyloxy-benzofuran-2-ylmethyl)-2-amino-6-methoxymethyl-nicotinamide], the MIC in test [1] and in test [2] was 0.78 µg/mL (≈ 2.12 µM) each time. For the same molecule, the “Mean Survival Days” value in test [3] was found to be 12.8 days.
Turning to `COCc1ccc(C(=O)NCc2cc3cc(OCc4ccccc4)ccc3o2)c(N)n1` [Example 7, 2-Amino-N-(5-benzyloxy-benzofuran-2-ylmethyl)-6-methoxymethyl-nicotinamide], the MIC in test [1] came to 1.56 µg/mL (≈ 3.74 µM); in test [2] it was 0.39 µg/mL (≈ 0.934 µM). The “Mean Survival Days” value in test [3] stood at 8.8 days.
The corresponding values for `Nc1ccc(C(=O)NCc2cc3ccc(OCc4ccccc4)cc3o2)c(N)n1` [Example 1, 2,6-Diamino-N-(6-benzyloxy-benzofuran-2-ylmethyl)-nicotinamide] are 1.56 µg/mL (≈ 4.02 µM), 0.39 µg/mL (≈ 1 µM) and 9.6 days.
For `Nc1ccc(C(=O)NCc2cc3ccc(OCC4CC4)cc3o2)c(N)n1` [Example 3, 2,6-Diamino-N-(6-cyclopropylmethoxy-benzofuran-2-ylmethyl)-nicotinamide] the same measures were 0.78 µg/mL (≈ 2.21 µM), 1.56 µg/mL (≈ 4.43 µM) and 8.6 days.
For `COCc1ccc(C(=O)NCc2cc3ccc(OCc4ccccc4)cc3o2)c(N)n1` [Example 4, 2-Amino-N-(6-benzyloxy-benzofuran-2-ylmethyl)-6-methoxymethyl-nicotinamide] the same measures were 3.13 µg/mL (≈ 7.5 µM), 0.78 µg/mL (≈ 1.87 µM) and 10.2 days.
In the case of `COCc1ccc(C(=O)NCc2cc3ccc(OCc4ccccc4)cc3s2)c(N)n1` [Example 77, 2-Amino-N-(6-benzyloxy-benzo[b]thiophen-2-ylmethyl)-6-methoxymethyl-nicotinamide], the results for the MIC in test [1] and in test [2] were 3.13 µg/mL (≈ 7.22 µM) and 0.39 µg/mL (≈ 0.9 µM), respectively.
For `Nc1ncccc1C(=O)NCc1cc2ccc(OCc3ccccc3)cc2o1` [Example 58, 2-Amino-N-(6-benzyloxy-benzofuran-2-ylmethyl)-nicotinamide] the same measures were 1.56 µg/mL (≈ 4.18 µM) and 0.1 µg/mL (≈ 0.268 µM).
Take `C#CCOc1ccc2cc(CNC(=O)c3ccc(COC)nc3N)oc2c1` [Example 39, 2-Amino-6-methoxymethyl-N-(6-prop-2-ynyloxy-benzofuran-2-ylmethyl)-nicotinamide]: the MIC in test [1] and in test [2] was 1.56 µg/mL (≈ 4.27 µM) throughout.
For the molecule `COCc1ccc(C(=O)NCc2cc3ccc(OCc4cccnc4)cc3o2)c(N)n1` [Example 45, 2-Amino-6-methoxymethyl-N-(6-(pyridin-3-ylmethoxy)-benzofuran-2-ylmethyl)-nicotinamide], the MIC in test [1] and in test [2] was 12.5 µg/mL (≈ 29.9 µM) throughout.
Consider `Nc1ccc(C(=O)NCc2cc3cc(OCC4CC4)ccc3o2)c(N)n1` [Example 53, 2,6-Diamino-N-(5-cyclopropylmethoxy-benzofuran-2-ylmethyl)-nicotinamide], for which the MIC in test [1] and in test [2] was 6.25 µg/mL (≈ 17.7 µM) in each case.
For the molecule `CC(C)(C)COc1ccc2cc(CNC(=O)c3ccc(N)nc3N)oc2c1` [Example 16, 2,6-Diamino-N-(6-(2,2-dimethyl-propoxy)-benzofuran-2-ylmethyl)-nicotinamide], the MIC in test [1] was determined as 6.25 µg/mL (≈ 17 µM); in test [2], 3.13 µg/mL (≈ 8.5 µM).
